This assay in a line: Compound was tested for inhibition of Angiotensin II receptor in rabbit aorta binding assay.
In the case of `CCc1nc2c(C)cc(C)nc2n1Cc1ccc(-c2ccoc2-c2nn[nH]n2)cc1`, the IC50 (commonly the midpoint of a concentration-inhibition curve) is recorded as 23 nM. `CCc1nc2c(C)cc(C)nc2n1Cc1ccc(-c2cscc2-c2nn[nH]n2)cc1`: the IC50 is 2.4 nM. The compound `CCc1nc2c(C)cc(C)nc2n1Cc1ccc(-c2ccccc2-c2nn[nH]n2)s1` registered an IC50 of 1000 nM.

As for `CCc1nc2c(C)cc(C)nc2n1Cc1ccc(-c2ccsc2-c2nn[nH]n2)cc1`, the IC50 came to 2.3 nM.
